The Ki is a measure of affinity in units of concentration, obtained from inhibition or displacement.

Like-named read-outs stand apart in the source and are kept apart here. Where no end group is shown, it is not given here. Where only a bound is given, the exact number is not on record here.

Here are results for 4 molecules from patent US20220402980A1, “CHROMOGRANIN A-DERIVED PEPTIDES AND USES THEREOF” (OSPEDALE SAN RAFFAELE S.R.L., priority 2019, published 2022).

The target in data set [1] is T1, αvβ6 (Homo sapiens, UniProt P06756+P18564).
T1 construct: recombinant human αvβ6 extracellular domain (R&D Systems); purchased R&D Systems (Minneapolis, Minn.)
T1 sequence (P06756 31-992 limits assumed): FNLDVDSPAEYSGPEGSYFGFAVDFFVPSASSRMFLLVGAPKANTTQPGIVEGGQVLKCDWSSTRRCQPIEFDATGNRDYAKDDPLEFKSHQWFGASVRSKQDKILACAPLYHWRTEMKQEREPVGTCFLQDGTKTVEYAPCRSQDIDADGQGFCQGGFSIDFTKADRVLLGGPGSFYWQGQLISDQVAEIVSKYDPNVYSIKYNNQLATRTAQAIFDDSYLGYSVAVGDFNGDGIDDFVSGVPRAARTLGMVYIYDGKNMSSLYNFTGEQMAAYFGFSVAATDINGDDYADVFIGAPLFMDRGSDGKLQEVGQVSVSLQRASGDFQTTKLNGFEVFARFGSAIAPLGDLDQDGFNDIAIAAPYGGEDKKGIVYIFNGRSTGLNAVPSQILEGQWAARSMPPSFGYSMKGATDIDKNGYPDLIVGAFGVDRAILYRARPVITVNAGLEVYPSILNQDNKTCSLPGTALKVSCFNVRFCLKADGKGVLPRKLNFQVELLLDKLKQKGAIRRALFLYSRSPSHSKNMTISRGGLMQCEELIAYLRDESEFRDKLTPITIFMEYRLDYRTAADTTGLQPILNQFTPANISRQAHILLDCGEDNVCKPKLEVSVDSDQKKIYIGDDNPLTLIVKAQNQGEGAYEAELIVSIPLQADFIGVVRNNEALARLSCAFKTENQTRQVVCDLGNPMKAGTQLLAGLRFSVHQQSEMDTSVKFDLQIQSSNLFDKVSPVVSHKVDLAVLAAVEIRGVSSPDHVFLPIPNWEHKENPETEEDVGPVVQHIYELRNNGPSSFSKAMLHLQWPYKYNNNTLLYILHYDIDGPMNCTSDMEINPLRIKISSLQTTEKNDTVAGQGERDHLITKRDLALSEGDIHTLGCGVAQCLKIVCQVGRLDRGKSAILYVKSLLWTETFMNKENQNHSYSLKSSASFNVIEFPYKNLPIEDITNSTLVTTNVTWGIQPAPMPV
T1 sequence (P18564 22-709 limits assumed): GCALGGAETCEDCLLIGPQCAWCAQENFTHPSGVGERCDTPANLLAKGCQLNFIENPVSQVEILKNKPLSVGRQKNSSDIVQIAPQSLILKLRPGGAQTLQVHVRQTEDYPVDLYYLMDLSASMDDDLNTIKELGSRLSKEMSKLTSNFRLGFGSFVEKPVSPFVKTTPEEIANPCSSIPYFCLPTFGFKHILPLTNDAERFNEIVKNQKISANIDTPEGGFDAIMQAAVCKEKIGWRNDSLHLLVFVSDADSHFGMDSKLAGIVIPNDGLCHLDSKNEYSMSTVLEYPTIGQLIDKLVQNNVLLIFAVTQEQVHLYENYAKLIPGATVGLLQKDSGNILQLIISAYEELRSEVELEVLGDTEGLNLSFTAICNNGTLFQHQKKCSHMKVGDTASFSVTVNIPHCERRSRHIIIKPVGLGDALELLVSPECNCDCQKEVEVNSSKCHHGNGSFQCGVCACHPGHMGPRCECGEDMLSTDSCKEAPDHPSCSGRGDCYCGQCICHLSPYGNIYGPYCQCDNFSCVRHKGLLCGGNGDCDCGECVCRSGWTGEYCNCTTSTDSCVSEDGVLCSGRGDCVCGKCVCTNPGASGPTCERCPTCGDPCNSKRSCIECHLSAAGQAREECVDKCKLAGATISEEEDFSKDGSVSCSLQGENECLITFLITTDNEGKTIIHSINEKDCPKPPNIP
The data set can be described thus: Direct binding of peptide-IRDye conjugates to αvβ6-coated microtiter plates. The conditions noted are these: purified integrin. Here is the method: (§1) Binding of 5a-IRDye and 2a-IRDye to microtiterplates coated with or without αvβ6 or αvβ8 as indicated in each panel. Various amounts of conjugates were added to microtiterplates and incubated for 1 h at room temperature (see Experimental section). After washing, bound fluorescence was measured using an Odyssey CLx (LI-COR) scanner. Representative images of the scanned plate and quantification of the binding are reported. Mean ±SE of triplicates. Effective concentration 50 (EC50, mean±SD) of the indicated number of independent experiments is shown.
(§2) Binding of 5a-IRDye, 2a-IRDye and Cys-IRDye to αvβ6 and αvβ8 was determined by direct binding assays as follows: 96-well clear-bottom black microtiterplates (Corning® cat. 3601) were coated with 4 μg/ml αvβ6 or αvβ8, in Dulbecco's phosphate-buffered saline with Ca2+ and Mg2+(DPBS, 50 ul/well) and left to incubate over-night at 4° C. […] The bound fluorescence was then quantified by scanning the empty plates with an Odyssey CLx near-infrared fluorescence imaging system (LI-COR) using the following settings: scan intensity, 8.5; scan focus offset, 3; scan quality, highest; channel, 800; resolution, 169 pm.

Data set [2] addresses T2, αvβ8 (Homo sapiens, UniProt P06756+P26012). Nature of the data set: Direct binding of peptide-IRDye conjugates to αvβ8-coated microtiter plates. Particulars: purified integrin. Here is the method:
as §1, §2

The test system of a further data set is BxPC-3 cells. Nature of the data set: Binding of peptide-IRDye conjugates to cultured BxPC-3 cells. Particulars: BxPC-3 (αvβ6+ αvβ8-), 1 h at 37° C. Format: cell-based, human. Here is the method: (§3) B) Binding of the indicated peptide-IRDye conjugates to the various cell lines. Various amounts of conjugates were added to cell monolayers (grown in 96-well microtiter plates) and incubated for 1 h at 37° C., 5% CO2 (see Experimental section). After washing, bound fluorescence was measured using an Odyssey CLx (LI-COR) scanner. A representative image of the scanned plate and binding quantification are reported. Mean ±SE of quadruplicate wells.
(§4) Various amounts of unlabeled peptides were mixed 5a-IRDye (4 nM) and added to the cells. After 1 h, the plates were washed, and the bound fluorescence was quantified as described above (left panels).
(§5) The binding of peptide-IRDye conjugates to BxPC-3, 5637, HUVECs, 4T1, K8484 and DT6606 cells was analyzed as follows. The cells were grown in 96-well clear-bottom black microtiterplates (Corning® cat. 3603, 2-3x10^4 cells/well, plated 48 h before the experiment). After washing twice with 0.9% sodium chloride solution, the cells were incubated with 25 mM Hepes buffer, pH 7.4, containing 150 mM sodium chloride, 1 mM magnesium chloride, 1 mM manganese chloride and 1% BSA (binding buffer) for 5 min. Peptide-IRDye conjugates (0.013-40 nM in binding buffer) were then added to the cells and left to incubate for 1 h at 37° C., 5% CO2. After three washings with binding buffer (5 min each, 200 al/well), the cells were fixed with PBS containing 2% paraformaldehyde and 3% sucrose for 15 min at room temperature. Binding of conjugates to cells was quantified by scanning the plate (filled with PBS, 100 al/well) with the Odyssey CLx (LI-COR) using the following settings: scan intensity, 8.5; scan focus offset 4; scan quality, highest; channel, 800; resolution, 169 pm. Then, the plates were incubated with 5 μg/ml of 4′,6-diamidino-2-phenylindole (DAPI) for 15 min, washed twice with PBS and read with a VICTOR3 plate reader (Perkin Elmer, Waltham, Mass., USA) to quantify the cell number in each well, using the following filters: excitation, 355±40 nm; emission, 460±25 nm (acquisition,1 s).

Data set [3] relates to 5637 cells. The data set can be described thus: Binding of peptide-IRDye conjugates to cultured 5637 cells. The class given is cell-based, human. Particulars: 5637 (αvβ6+ αvβ8+), 1 h at 37° C. Here is the method: as §3, §4, §5
Another data set relates to HUVEC. Nature of the data set: Binding of peptide-IRDye conjugates to cultured HUVEC. The class given is cell-based, human. Particulars: HUVEC (lacking these integrins). Here is the method:
as §3
The binding of peptide-IRDye conjugates to BxPC-3, 5637, HUVECs, 4T1, K8484 and DT6606 cells was analyzed as follows. The cells were grown in 96-well clear-bottom black microtiterplates (Corning® cat. 3603, 2-3x10^4 cells/well, plated 48 h before the experiment). […] Binding of conjugates to cells was quantified by scanning the plate (filled with PBS, 100 al/well) with the Odyssey CLx (LI-COR) using the following settings: scan intensity, 8.5; scan focus offset 4; scan quality, highest; channel, 800; resolution, 169 pm. Then, the plates were incubated with 5 μg/ml of 4′,6-diamidino-2-phenylindole (DAPI) for 15 min, washed twice with PBS and read with a VICTOR3 plate reader (Perkin Elmer, Waltham, Mass., USA) to quantify the cell number in each well, using the following filters: excitation, 355±40 nm; emission, 460±25 nm (acquisition,1 s).

In data set [4] the test system is subcutaneous BxPC-3 tumors. The conditions noted are these: mouse, in vivo.
The nature of another data set: in vivo. Particulars: female, NSG, mouse, iv, 1.28 nmol.
Data set [5] has as its system 5637 cells. The data set can be described thus: Binding assay of 5-Qdot to human 5637 cells (FACS, fluorescence microscopy). Particulars: flow cytometry and fluorescence microscopy. The class given is cell-based. Here is the method:
FIG. 3. Binding of CgA-derived peptides to human bladder cancer 5637 cells. a) Effect of 1, 4, 5 and 6 on the binding of anti-αvβ6 mAb 10D5 to 5637 cells. Antibody binding quantification as determined by flow cytometry analysis (FACS) (see also FIG. 11A). Compounds were mixed with mAb 10D5 and added to cells; mAb binding was detected by FACS and inhibitory concentration (IC50, mean±SEM) was determined. Each point is in duplicate. b) Binding of 5-Qdot or *Qdot (control) to 5637 cells as measured by FACS. Representative FACS (left and middle) and quantification of Qdot binding (right) (circles: mean±SD of duplicates). c) Representative fluorescence bioimaging of 5637 cells incubated with 5-Qdot, *Qdot or diluent. […]
Binding assays of 5-Qdot and *Qdot to 5637 cells were carried out as follows: 5637 cells were grown in chamber slides (6×10^4 cells/well). […] The cells were washed again with binding buffer, fixed with paraformaldehyde for 20 min, counterstained with DAPI (0.05 μg/ml, Invitrogen), and analyzed using a fluorescence microscopy (Carl Zeiss, Axioscop 40FL; excitation, filter, BP 560/40 nm; beam splitter filter, FT 585 nm; emission filter, 630/75 nm). […] After washing with 25 mM Hepes buffer, pH 7.4, containing 150 mM NaCl, 1 mM MgCl2, 1 mM MgCl2, the cells were fixed with formaldehyde and analyzed using the CytoFLEX S (Beckman Coulter).
In general terms: In flow cytometry, cells or beads pass a laser one at a time.

Data set [6] concerns the target T1, αvβ6. The data set can be described thus: Competitive integrin binding assay (isoDGR/STV-HRP probe), αvβ6-coated plates. The conditions noted are these: non-stapled control peptide with RGE. Here is the method:
(§6) Peptide binding was measured by a competitive binding assay using as integrin probe a complex made by a N-terminal acetylated isoDGR peptide biotinylated at the E-amino group of the lysine, acetyl-Ciso[…]-bio (SEQ ID No. 29), and a streptavidin-peroxidase conjugate (called isoDGR/STV-HRP)[43].
(§7) Each mixture was then added to integrin-coated wells and left to incubate for 2 h at room temperature. After washing with 25 mM Tris-HCl, pH 7.4, containing 150 mM sodium chloride, 1 mM magnesium chloride, 1 mM manganese chloride, each well was filled with a chromogenic solution (o-phenylenediamine dihydrochloride) and left to incubate for 30 min at room temperature. The chromogenic reaction was stopped by adding 1 N sulfuric acid. The absorbance at 490 nm was then measured using a microtiterplate reader. Ki values were calculated by non-linear regression analysis of competitive binding data using the “One site - Fit Ki” equation of the GraphPad Prism Software using the Kd values of the probe indicated above.

The target in data set [7] is T2, αvβ8. The data set can be described thus: Competitive integrin binding assay (isoDGR/STV-HRP probe), αvβ8-coated plates. Particulars: non-stapled control peptide with RGE. On the procedure:
as §6, §7

Data set [8] has as its target T1, αvβ6. The conditions noted are these: cited from earlier work.
The target of data set [9] is T2, αvβ8. Particulars: Table 3a; Ki of 2 as determined in [21]; cited from earlier work.
In the next data set the target is T3, α5β1 (Homo sapiens, UniProt P05556+P08648).
T3 construct: purchased Immunological Sciences (Rome, Italy)
Particulars: Table 3a; Ki of 2 as determined in [21]; cited from earlier work.

For the next data set, the target named is T4, αvβ5 (Homo sapiens, UniProt P06756+P18084).
T4 construct: purchased Immunological Sciences (Rome, Italy)
T4 sequence (P06756 31-889 limits assumed): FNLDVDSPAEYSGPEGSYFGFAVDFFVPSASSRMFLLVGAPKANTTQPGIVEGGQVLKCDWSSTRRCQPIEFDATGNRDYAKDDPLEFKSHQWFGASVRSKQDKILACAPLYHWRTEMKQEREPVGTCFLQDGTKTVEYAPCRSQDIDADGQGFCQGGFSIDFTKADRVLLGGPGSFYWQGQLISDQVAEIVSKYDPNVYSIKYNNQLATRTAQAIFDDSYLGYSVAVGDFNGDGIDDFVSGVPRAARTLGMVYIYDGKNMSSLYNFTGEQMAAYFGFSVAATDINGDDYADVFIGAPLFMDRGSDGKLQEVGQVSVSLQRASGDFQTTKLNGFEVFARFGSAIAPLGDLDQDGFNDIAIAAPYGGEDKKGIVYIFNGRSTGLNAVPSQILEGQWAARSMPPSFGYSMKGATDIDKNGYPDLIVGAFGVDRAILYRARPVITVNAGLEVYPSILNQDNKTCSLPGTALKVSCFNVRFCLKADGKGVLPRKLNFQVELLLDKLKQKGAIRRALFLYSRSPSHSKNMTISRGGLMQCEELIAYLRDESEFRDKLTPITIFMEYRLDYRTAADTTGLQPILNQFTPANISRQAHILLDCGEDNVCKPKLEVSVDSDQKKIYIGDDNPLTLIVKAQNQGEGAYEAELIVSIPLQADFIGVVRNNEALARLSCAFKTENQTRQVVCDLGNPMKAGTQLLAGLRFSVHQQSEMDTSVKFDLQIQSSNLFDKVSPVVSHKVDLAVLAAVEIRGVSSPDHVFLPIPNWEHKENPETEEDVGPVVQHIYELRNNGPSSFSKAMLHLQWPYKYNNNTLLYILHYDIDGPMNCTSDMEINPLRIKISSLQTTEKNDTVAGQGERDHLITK
T4 sequence (P06756 891-1048 partner limits assumed): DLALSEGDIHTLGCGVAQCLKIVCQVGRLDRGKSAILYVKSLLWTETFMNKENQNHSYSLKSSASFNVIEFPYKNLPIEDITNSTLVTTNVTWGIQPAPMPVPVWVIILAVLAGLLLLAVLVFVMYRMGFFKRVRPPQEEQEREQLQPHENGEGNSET
T4 sequence (P18084 24-799): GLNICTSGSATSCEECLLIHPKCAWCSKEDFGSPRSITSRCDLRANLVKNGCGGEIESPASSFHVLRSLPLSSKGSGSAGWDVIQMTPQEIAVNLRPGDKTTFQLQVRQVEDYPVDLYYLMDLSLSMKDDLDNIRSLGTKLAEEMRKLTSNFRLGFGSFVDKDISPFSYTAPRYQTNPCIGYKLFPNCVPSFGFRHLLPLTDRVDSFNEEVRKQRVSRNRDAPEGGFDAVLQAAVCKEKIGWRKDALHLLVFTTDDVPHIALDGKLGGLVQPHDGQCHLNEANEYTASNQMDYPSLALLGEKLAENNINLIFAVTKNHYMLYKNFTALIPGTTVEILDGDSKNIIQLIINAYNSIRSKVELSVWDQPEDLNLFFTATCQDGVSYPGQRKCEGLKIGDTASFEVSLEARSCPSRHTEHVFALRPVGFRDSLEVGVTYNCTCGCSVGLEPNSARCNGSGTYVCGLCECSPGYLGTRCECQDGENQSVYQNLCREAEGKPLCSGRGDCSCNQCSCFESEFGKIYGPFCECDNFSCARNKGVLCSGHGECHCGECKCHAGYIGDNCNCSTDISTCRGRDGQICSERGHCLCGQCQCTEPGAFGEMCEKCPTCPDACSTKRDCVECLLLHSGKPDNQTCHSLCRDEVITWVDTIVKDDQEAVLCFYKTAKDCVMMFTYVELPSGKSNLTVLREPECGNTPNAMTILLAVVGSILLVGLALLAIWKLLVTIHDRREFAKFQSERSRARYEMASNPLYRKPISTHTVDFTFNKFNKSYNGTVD
The conditions noted are these: Table 3a; Ki of 2 as determined in [21]; cited from earlier work.

A further data set has as its target T5, αvβ3 (Homo sapiens, UniProt P05106+P06756).
T5 construct: purchased Immunological Sciences (Rome, Italy)
The conditions noted are these: Table 3a; Ki of 2 as determined in [21]; cited from earlier work.

T2 sequence (P06756 31-992 limits assumed): as the sequence (P06756 31-992 limits assumed) above
T2 sequence (P26012 43-684 limits assumed): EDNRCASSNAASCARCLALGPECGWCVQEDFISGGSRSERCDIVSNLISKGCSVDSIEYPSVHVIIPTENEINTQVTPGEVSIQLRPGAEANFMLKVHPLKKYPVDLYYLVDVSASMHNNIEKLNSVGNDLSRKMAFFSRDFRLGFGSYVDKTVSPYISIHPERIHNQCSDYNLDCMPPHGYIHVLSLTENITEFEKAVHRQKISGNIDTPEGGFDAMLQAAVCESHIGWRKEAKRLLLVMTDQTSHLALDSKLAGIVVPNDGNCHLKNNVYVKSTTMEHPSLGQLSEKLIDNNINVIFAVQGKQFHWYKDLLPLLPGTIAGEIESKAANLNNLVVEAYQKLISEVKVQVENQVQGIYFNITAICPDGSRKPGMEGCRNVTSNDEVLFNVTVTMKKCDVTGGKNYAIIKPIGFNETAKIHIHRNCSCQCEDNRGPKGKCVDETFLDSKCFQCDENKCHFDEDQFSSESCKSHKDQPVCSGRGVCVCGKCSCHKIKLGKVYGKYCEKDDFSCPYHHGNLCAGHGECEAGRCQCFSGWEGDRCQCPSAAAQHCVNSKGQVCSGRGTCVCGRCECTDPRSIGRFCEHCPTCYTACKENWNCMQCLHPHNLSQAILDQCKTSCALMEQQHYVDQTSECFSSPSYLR
T5 sequence (P06756 31-889 limits assumed): as the sequence (P06756 31-889 limits assumed) above
T5 sequence (P06756 891-1048 partner limits assumed): as the sequence (P06756 891-1048 partner limits assumed) above
T5 sequence (P05106 27-788): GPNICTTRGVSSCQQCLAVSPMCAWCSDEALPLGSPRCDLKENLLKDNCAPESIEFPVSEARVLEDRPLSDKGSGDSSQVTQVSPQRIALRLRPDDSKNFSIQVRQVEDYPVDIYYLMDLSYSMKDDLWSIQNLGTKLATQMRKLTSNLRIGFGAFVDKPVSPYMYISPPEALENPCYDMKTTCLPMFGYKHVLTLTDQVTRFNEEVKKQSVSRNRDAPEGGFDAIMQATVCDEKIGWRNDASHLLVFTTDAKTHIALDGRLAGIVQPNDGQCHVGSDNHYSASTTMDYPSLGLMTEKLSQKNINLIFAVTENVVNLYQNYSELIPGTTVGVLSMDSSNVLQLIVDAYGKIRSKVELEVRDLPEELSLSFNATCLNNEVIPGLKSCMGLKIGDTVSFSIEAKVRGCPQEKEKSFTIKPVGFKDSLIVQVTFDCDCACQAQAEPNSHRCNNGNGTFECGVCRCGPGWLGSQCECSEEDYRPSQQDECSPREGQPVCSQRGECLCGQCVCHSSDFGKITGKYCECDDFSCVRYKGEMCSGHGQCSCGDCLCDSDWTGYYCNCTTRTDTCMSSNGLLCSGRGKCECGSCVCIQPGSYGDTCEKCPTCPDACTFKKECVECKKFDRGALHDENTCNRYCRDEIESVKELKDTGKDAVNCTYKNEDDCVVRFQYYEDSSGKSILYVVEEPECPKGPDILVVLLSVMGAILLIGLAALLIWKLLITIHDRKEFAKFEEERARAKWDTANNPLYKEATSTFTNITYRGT

“2a-IRDye: control peptide 2a coupled via Cys to maleimide-IRDye 800CW (C(maleimide‑IRDye 800CW)FETLRGEERILSILRHQNLLKELQD) [reference compound]”: the “binding to αvβ6-coated plates” value with αvβ6 [1] is listed as “not”. Also, the “binding to αvβ8-coated plates” value in the data set with αvβ8 [2] is on record as “not”. Also, the “binding of conjugate to cells” value in the data set on BxPC-3 cells and with 5637 cells [3] was “not” in each case.
With `CC[C@H](C)[C@H](NC(=O)[C@H](CCCNC(=N)N)NC(=O)[C@H](CC(C)C)NC(=O)[C@H](CC(=O)O)NC(=O)CNC(=O)[C@H](CCCNC(=N)N)NC(=O)[C@H](CC(C)C)NC(=O)[C@@H](NC(=O)[C@H](CCC(=O)O)NC(=O)[C@H](Cc1ccccc1)NC(=O)[C@@H](N)CSC1CC(=O)N(CCNC(=O)CCCCCN2C(=CC=C3CCCC(C=CC4=[N+](CCCCS(=O)(=O)[O-])c5ccc(S(=O)(=O)O)cc5C4(C)C)=C3Oc3ccc(S(=O)(=O)O)cc3)C(C)(C)c3cc(S(=O)(=O)O)ccc32)C1=O)[C@@H](C)O)C(=O)N[C@@H](CC(C)C)C(=O)N[C@@H](CO)C(=O)N[C@H](C(=O)N[C@@H](CC(C)C)C(=O)N[C@@H](CCCNC(=N)N)C(=O)N[C@H]1Cc2cn(nn2)CCCC[C@@H](C(=O)N[C@@H](CCCCN)C(=O)N[C@@H](CCC(=O)O)C(=O)N[C@@H](CC(C)C)C(=O)N[C@@H](CCC(N)=O)C(=O)N[C@@H](CC(=O)O)C(N)=O)NC(=O)[C@H](CC(C)C)NC(=O)[C@H](CC(N)=O)NC(=O)[C@H](CCC(N)=O)NC1=O)[C@@H](C)CC` (stereo partly shown) [5a-IRDye], the “binding of conjugate to cells” value was “could bind, in a dose dependent manner” with BxPC-3 cells; “could bind, in a dose dependent manner” in the data set with 5637 cells [3]; “little or not” with HUVEC. The “tumor signal twenty-four hours after injection” value in data set [4] is recorded as “significant signal was still visible”. For the same molecule, in [4] (iv), the “time of maximal tumor uptake after injection” value is 1 h. Also, the tissue to tissue ratio at 24 h in the data set “in vivo” was 12.
For “*Qdot: control nanoconjugate without the targeting ligand; Qdot coupled to control peptide cyclic head-to-tail c(CGARAG) (cyclo(CGARAG); also: coupled to Qdot (control nanoconjugate)) [reference compound]”, the “binding of Qdot conjugate to cells” value in the data set on 5637 cells [5] was “not”.
Consider FETLRGEERILSILRHQNLLKELQD [peptide 2], for which the “binding to αvβ6” value at αvβ6 [6] is reported as “unable to bind these integrins”. The “binding to αvβ8” value at αvβ8 [7] is reported as “unable to bind these integrins”. The inhibition constant Ki was greater than 50 µM at αvβ6 [8] (Table 3a, Ki of 2 as determined in [21], read-out: Ki αvβ6); greater than 50 µM on αvβ6 [8] (peptide with RGE instead of RGD, read-out: Ki); greater than 50 µM at αvβ8 [9]; greater than 50 µM at α5β1; greater than 50 µM at αvβ5; greater than 50 µM on αvβ3.
